# Test system: BuGH3MLG
# Experiment: p-nitrophenol release, absorbance […] nm
# Assay type: biochemical, Bacteroides uniformis
# Conditions: sodium phosphate pH 5.7, 37 °C
row,Km,Compound
1,640 ± 90 µM,O=[N+]([O-])c1ccc(O[C@@H]2O[C@H](CO)[C@@H](O[C@@H]3O[C@H](CO)[C@@H](O)[C@H](O)[C@H]3O)[C@H](O)[C@H]2O)cc1 [p-Nitrophenyl β-D-cellobioside]
2,2900 ± 700 µM,CC(=O)N[C@H]1[C@H](Oc2ccc([N+](=O)[O-])cc2)O[C@H](CO)[C@@H](O)[C@@H]1O [p-nitrophenyl-N-acetyl glucosaminide]
3,530 ± 120 µM,O=[N+]([O-])c1ccc(O[C@@H]2O[C@H](CO)[C@@H](O)[C@H](O)[C@H]2O)cc1 [p-Nitrophenyl-β-D-glucopyranoside]
4,880 ± 160 µM,O=[N+]([O-])c1ccc(O[C@@H]2O[C@H](CO)[C@@H](O)[C@H](O[C@@H]3O[C@H](CO)[C@@H](O)[C@H](O)[C@H]3O)[C@H]2O)cc1 [p-Nitrophenyl β-D-laminaribioside]

# Test system: BuGH3MLG
# Experiment: PAHBAH reducing sugar assay, […] nm
# Assay type: biochemical, Bacteroides uniformis
# Conditions: 30 min hydrolysis
row,Compound,Km
1,OC[C@H]1O[C@@H](O[C@@H]2[C@@H](O)[C@H](O[C@H]3[C@H](O)[C@@H](CO)OC(O)[C@@H]3O)O[C@H](CO)[C@H]2O)[C@H](O)[C@@H](O)[C@@H]1O (stereo partly shown) [Laminaritriose],7.5 ± 0.5 µM
2,OC[C@H]1O[C@@H](O[C@H]2[C@H](O)[C@@H](O)[C@H](O[C@H]3[C@H](O)[C@@H](O)[C@H](O[C@H]4[C@H](O)[C@@H](O)C(O)O[C@@H]4CO)O[C@@H]3CO)O[C@@H]2CO)[C@H](O)[C@@H](O)[C@@H]1O (stereo partly shown) [Cellotetraose],56.9 ± 9 µM
3,"OC[C@H]1O[C@@H](O[C@H]2[C@H](O)[C@@H](O)[C@H](O[C@H]3[C@H](O)[C@@H](O)[C@H](O[C@H]4[C@H](O)[C@@H](CO)OC(O)[C@@H]4O)O[C@@H]3CO)O[C@@H]2CO)[C@H](O)[C@@H](O)[C@@H]1O (stereo partly drawn) [G4G4G3G, β-d-Glc^iv(1→4)β-d-Glc^iii(1→4)β-d-Glc^ii(1→3)-d-Glc^i]",28.2 ± 6.2 µM
4,"OC[C@H]1O[C@@H](O[C@H]2[C@H](O)[C@@H](O)[C@H](O[C@H]3[C@H](O)[C@@H](CO)OC(O)[C@@H]3O)O[C@@H]2CO)[C@H](O)[C@@H](O)[C@@H]1O (stereo partly drawn) [β-D-cellobiosyl-glucose, β-d-Glc^iii(1→4)β-d-Glc^ii(1→3)-d-Glc^i]",41.3 ± 7 µM
5,OC[C@H]1O[C@@H](O[C@@H]2[C@@H](O)[C@H](O[C@@H]3[C@@H](O)[C@H](O[C@H]4[C@H](O)[C@@H](CO)OC(O)[C@@H]4O)O[C@H](CO)[C@H]3O)O[C@H](CO)[C@H]2O)[C@H](O)[C@@H](O)[C@@H]1O (stereo partly shown) [Laminaritetrose],9.9 ± 1.1 µM
6,OC[C@H]1O[C@@H](O[C@H]2[C@H](O)[C@@H](O)[C@H](O[C@H]3[C@H](O)[C@@H](O)C(O)O[C@@H]3CO)O[C@@H]2CO)[C@H](O)[C@@H](O)[C@@H]1O (stereo partly shown) [Cellotriose],26.1 ± 5.5 µM

# More lines, now with the values ahead:
row,Km,Compound
1,7.4 ± 1.24 µM,OC[C@H]1O[C@@H](O[C@H]2[C@H](O)[C@@H](O)C(O)O[C@@H]2CO)[C@H](O)[C@@H](O)[C@@H]1O (stereo partly shown) [Cellobiose]
2,241 ± 16.2 µM,OC[C@H]1O[C@@H](OC[C@H]2OC(O)[C@H](O)[C@@H](O)[C@@H]2O)[C@H](O)[C@@H](O)[C@@H]1O (stereo partly shown) [Gentiobiose]
3,7.1 ± 1.2 µM,OC[C@H]1O[C@@H](O[C@H]2[C@H](O)[C@@H](CO)OC(O)[C@@H]2O)[C@H](O)[C@@H](O)[C@@H]1O (stereo partly shown) [Laminaribiose]
